Experimental data: article PMC10136189, “A Tale of 12 Tails: Katanin Severing Activity Affected by Carboxy-Terminal Tail Sequences” (Biomolecules, 2023)

Assays:
human GFP-katanin p60 [1] = biological target: T1, human GFP-katanin p60 (Homo sapiens, UniProt O75449); experiment: GFP-katanin binding to microtubules (TIRF intensity) in the severing assay; conditions: inhibitor 0-2 μM; GFP intensity normalized to same day control without inhibitor; pH 7.7, 2 mM ATP
T1 construct: made in house; host or cells: Escherichia coli BL21(DE3)
Description: (§1) In this work, we use the in vitro microtubule severing assay to quantitatively characterize the microtubule binding and severing ability of human GFP-katanin p60 in the presence of different CTT sequences. First, we ensure that our human GFP-katanin p60 can robustly and reproducibly sever microtubules and completely remove all polymer within 3–5 min (Figure 1A). As each katanin prep has slightly different activity and the activity can fluctuate (Supplemental Figure S1), we perform control experiments each day to determine the optimal katanin concentration needed and to serve as a control without added inhibitors (Figure 1A). For simplicity we use “katanin” to refer to human GFP-katanin p60 for the remainder of this manuscript.
(§2) Flow chambers with 10 μL channels were made by adhering double-stick tape (3M, St. Paul, MN, USA) to a microscope slide and attaching a silanized coverslip cross-wise. Silanized coverslips were UVO sterilized, cleaned with rinses of acetone, ethanol, 0.1 M KOH, and ddH20 before coating with PlusOne Repel-Silane 2% dimethyldichlorosilane (Cytiva, Marlborough, MA, USA). Samples were made in the chambers by flowing through the chamber using a pipette and filter paper to wick from the other side. For severing assays, we first flowed 5% MAB1864 tubulin YL ½ antibody (Merck-Millipore, Billerica, MA, USA) in PEM-100 for three minutes to provide a binding site for microtubules. Second, we flowed 5% (w/v) Pluronic F127 to act as a polymer brush to block the surface, allowing three minutes for incubation. Next, we flowed 10% rhodamine-labeled microtubules diluted 1:100 (final tubulin concentration 454 nM) and allowed them to adhere for three minutes. During the incubation, an aliquot of katanin was rapidly defrosted from −80 °C and diluted to assay concentration. The chamber was then washed with Katanin Activity Buffer (20 mM HEPES pH 7.7, 10% glycerol, 2 mM MgCl2, 2 mM ATP, 0.025 mg/mL BSA, 0.05% F127, 10 mM dithiothreitol (DTT), 15 mg/mL glucose, 0.15 mg/mL catalase, […]) to remove excess unadhered microtubules. The chamber was then situated on the microscope to find a good field for the assay before flowing Katanin Activity Buffer with GFP-katanin and CTT tails at their respective concentrations.
Imaging was performed using epifluorescence and total internal reflection (TIRF) with a home-built laser illumination system around a Nikon Ti-E microscope (Nikon USA, Melville, NY, USA). Epifluorescence was used to image rhodamine microtubules in the red channel, and TIRF was used to image GFP-katanin illuminating with a 488 nm laser. Images were collected with a 60x, oil-coupled TIRF objective with a numerical aperture of 1.49 (Nikon USA, Melville, NY, USA). The two-color imaging was performed using shuttering the red channel (400–800 ms exposure) and green channel (70–200 ms exposure) sequentially. The 5 min movies recorded with 3 s intervals using Nikon Elements software (Nikon USA, Melville, NY, USA) driving an Ixon EMCCD camera (Andor, Belfast, Northern Ireland) with a final pixel size of 160 nm. […]
(§3) Each of the 64 treatments were run two to three times for replication and for obtaining 15–20 MTs for analysis. […] Next, the concentration needed to sever microtubules within 2–3 min is determined in the presence of ATP. Once the optimal katanin concentration is determined, the assay is repeated in the absence of ATP to again test the imaging conditions in the presence of a GFP-katanin binding to microtubules. […]

human GFP-katanin p60 [2] = biological target: T1, human GFP-katanin p60; experiment: in vitro microtubule severing assay (loss of microtubule polymer); type: biochemical; conditions: for inhibition of katanin severing of microtubules (loss of polymer) / relative potency as inhibitor of katanin binding and severing (comparison in words): inhibitor 0-2 μM; for inhibition of katanin severing of microtubules (loss of polymer): taxol-stabilized rhodamine microtubules, Katanin Activity Buffer pH 7.7, 2 mM ATP, 5 min movies; for relative potency as inhibitor of katanin binding and severing (comparison in words): compared with other CTTs or whole tubulin
Description: as §1, §2
Imaging was performed using epifluorescence and total internal reflection (TIRF) with a home-built laser illumination system around a Nikon Ti-E microscope (Nikon USA, Melville, NY, USA). Epifluorescence was used to image rhodamine microtubules in the red channel, and TIRF was used to image GFP-katanin illuminating with a 488 nm laser. Images were collected with a 60x, oil-coupled TIRF objective with a numerical aperture of 1.49 (Nikon USA, Melville, NY, USA). The two-color imaging was performed using shuttering the red channel (400–800 ms exposure) and green channel (70–200 ms exposure) sequentially. The 5 min movies recorded with 3 s intervals using Nikon Elements software (Nikon USA, Melville, NY, USA) driving an Ixon EMCCD camera (Andor, Belfast, Northern Ireland) with a final pixel size of 160 nm. Movie data were saved as a 16-bit time series as nd2 files with metadata. Movies were started recording before the GFP-katanin mixture was flowed while imaging. After the 5 min, a new field of view was imaged to ensure that the loss of microtubule polymer was universal in the chamber and not due to imaging conditions.
as §3, with “analysis. Four control chambers were run each day to ensure chamber activity was caused by the respective treatment conditions.” for “analysis.”

T1 sequence (O75449 whole entry): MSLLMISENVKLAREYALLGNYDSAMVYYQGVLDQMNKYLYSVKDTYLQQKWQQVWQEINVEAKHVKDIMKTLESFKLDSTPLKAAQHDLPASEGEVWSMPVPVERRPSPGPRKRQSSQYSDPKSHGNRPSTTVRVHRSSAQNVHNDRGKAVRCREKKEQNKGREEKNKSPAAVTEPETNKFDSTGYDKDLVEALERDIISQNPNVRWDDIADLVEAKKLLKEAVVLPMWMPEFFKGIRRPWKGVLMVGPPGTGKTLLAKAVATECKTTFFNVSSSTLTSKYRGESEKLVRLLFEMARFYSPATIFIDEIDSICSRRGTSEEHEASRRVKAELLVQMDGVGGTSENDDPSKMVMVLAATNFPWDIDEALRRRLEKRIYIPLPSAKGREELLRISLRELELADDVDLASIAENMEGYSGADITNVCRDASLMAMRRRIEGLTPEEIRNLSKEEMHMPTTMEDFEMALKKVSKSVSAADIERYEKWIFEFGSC

inhibition of GFP-katanin binding to microtubules (human GFP-katanin p60 [1]) | inhibition of katanin severing of microtubules (loss of polymer) (human GFP-katanin p60 [2]) | predicted ability to inhibit katanin severing (human GFP-katanin p60 [2]; prediction from hydrophobicity and C-terminal phenylalanine, not tested) | Sequence | relative potency as inhibitor of katanin binding and severing (comparison in words) (human GFP-katanin p60 [2]; listed as beta5 CTT) | relative potency as inhibitor of katanin binding and severing (comparison in words) (human GFP-katanin p60 [2]; listed as beta5 tubulin CTT)
can inhibit | can inhibit | – | A T A DDDDDDDDDD [D10] | – | –
more beta2a CTT is needed to inhibit | more beta2a CTT is needed to inhibit | – | A T A DE Q G E F EEEE G EDE A [Beta2 (TUBB2A)] | – | –
– | severing is inhibited | – | A T A EEEED F G EE A EEE A [Beta5 (TUNN/TUBB5)] | most potent inhibitor of the CTTs we tested | better at inhibiting katanin than whole tubulin
does not affect katanin binding | far less potent as a katanin inhibitor | – | A T A EEEED F G EE A EEE Y [Beta5-A+Y, artificial beta5 CTT with the last amino acid (A) replaced with a tyrosine] | – | –
little inhibition of GFP-katanin binding | cannot inhibit katanin severing | – | A T A EEEED M Y EDDDEE S E A Q G P K [Beta3 (TUBB3)] | – | –
can inhibit | can inhibit | – | A T A EEEEEEEEEE [E10] | – | –
– | – | unable to inhibit katanin severing | DSFEEENEGEEF [alpha8, human alpha8 tubulin tail, only alpha tail with a C-terminal F; hydrophobicity calculated, not tested] | – | –
